# Data published in the NIST ThermoML archive (doi:10.1016/j.fluid.2007.07.063).
# ± gives the expanded uncertainty stated by the source.
# Assays:
# [1] = 298.15 K; 101.33 kPa; Liquid; Pycnometric method
# [2] = excess molar enthalpy (molar enthalpy of mixing); xn = mol fraction of the nth substance listed; conditions: 298.15 K, 101 kPa, Liquid, Flow calorimetry
smiles,measurement,setting,value
CCCCO [butan-1-ol],mass density,[1],805.71 ± 0.73 kg/m3
CCCCCCCCCCO [decan-1-ol],mass density,[1],826.31 ± 0.74 kg/m3
CCCCCCO [hexan-1-ol],mass density,[1],815.4 ± 0.78 kg/m3
C=CCCCCCC [oct-1-ene],mass density,[1],710.88 ± 0.64 kg/m3
C=CCCCCCC [oct-1-ene] + CCCCCCCCCCO,excess molar enthalpy,[2]; x2 = 0.097,0.0643 ± 0.00335 kcal/mol
same,excess molar enthalpy,[2]; x2 = 0.195,0.0875 ± 0.00454 kcal/mol
same,excess molar enthalpy,[2]; x2 = 0.293,0.0956 ± 0.00478 kcal/mol
same,excess molar enthalpy,[2]; x2 = 0.406,0.0924 ± 0.00478 kcal/mol
same,excess molar enthalpy,[2]; x2 = 0.504,0.0834 ± 0.0043 kcal/mol
same,excess molar enthalpy,[2]; x2 = 0.602,0.072 ± 0.00359 kcal/mol
same,excess molar enthalpy,[2]; x2 = 0.7,0.0578 ± 0.00287 kcal/mol
same,excess molar enthalpy,[2]; x2 = 0.8,0.0397 ± 0.00203 kcal/mol
same,excess molar enthalpy,[2]; x2 = 0.902,0.0182 ± 0.000956 kcal/mol
C=CCCCCCC [oct-1-ene] + CCCCCCCCO,excess molar enthalpy,[2]; x2 = 0.097,0.0699 ± 0.00359 kcal/mol
same,excess molar enthalpy,[2]; x2 = 0.194,0.0935 ± 0.00478 kcal/mol
same,excess molar enthalpy,[2]; x2 = 0.292,0.104 ± 0.00526 kcal/mol
same,excess molar enthalpy,[2]; x2 = 0.391,0.103 ± 0.00526 kcal/mol
same,excess molar enthalpy,[2]; x2 = 0.49,0.0942 ± 0.00478 kcal/mol
same,excess molar enthalpy,[2]; x2 = 0.6,0.0814 ± 0.00406 kcal/mol
same,excess molar enthalpy,[2]; x2 = 0.699,0.0631 ± 0.00311 kcal/mol
same,excess molar enthalpy,[2]; x2 = 0.799,0.0429 ± 0.0022 kcal/mol
same,excess molar enthalpy,[2]; x2 = 0.899,0.0188 ± 0.00098 kcal/mol
C=CCCCCCC [oct-1-ene] + CCCCCCO,excess molar enthalpy,[2]; x2 = 0.096,0.0801 ± 0.00406 kcal/mol
same,excess molar enthalpy,[2]; x2 = 0.192,0.105 ± 0.00526 kcal/mol
same,excess molar enthalpy,[2]; x2 = 0.307,0.12 ± 0.00598 kcal/mol
same,excess molar enthalpy,[2]; x2 = 0.403,0.118 ± 0.00598 kcal/mol
same,excess molar enthalpy,[2]; x2 = 0.5,0.106 ± 0.00526 kcal/mol
same,excess molar enthalpy,[2]; x2 = 0.598,0.0912 ± 0.00454 kcal/mol
same,excess molar enthalpy,[2]; x2 = 0.697,0.0724 ± 0.00359 kcal/mol
same,excess molar enthalpy,[2]; x2 = 0.802,0.0491 ± 0.00263 kcal/mol
same,excess molar enthalpy,[2]; x2 = 0.9,0.0233 ± 0.00122 kcal/mol
C=CCCCCCC [oct-1-ene] + CCCCO,excess molar enthalpy,[2]; x2 = 0.095,0.0949 ± 0.00478 kcal/mol
same,excess molar enthalpy,[2]; x2 = 0.209,0.14 ± 0.00717 kcal/mol
same,excess molar enthalpy,[2]; x2 = 0.304,0.154 ± 0.00789 kcal/mol
same,excess molar enthalpy,[2]; x2 = 0.4,0.149 ± 0.00765 kcal/mol
same,excess molar enthalpy,[2]; x2 = 0.497,0.132 ± 0.00669 kcal/mol
same,excess molar enthalpy,[2]; x2 = 0.595,0.109 ± 0.0055 kcal/mol
same,excess molar enthalpy,[2]; x2 = 0.702,0.0832 ± 0.0043 kcal/mol
same,excess molar enthalpy,[2]; x2 = 0.8,0.0565 ± 0.00287 kcal/mol
same,excess molar enthalpy,[2]; x2 = 0.899,0.0286 ± 0.00148 kcal/mol
C=CCCCCCC [oct-1-ene] + CCCO,excess molar enthalpy,[2]; x2 = 0.094,0.104 ± 0.00526 kcal/mol
same,excess molar enthalpy,[2]; x2 = 0.189,0.154 ± 0.00789 kcal/mol
same,excess molar enthalpy,[2]; x2 = 0.302,0.183 ± 0.00932 kcal/mol
same,excess molar enthalpy,[2]; x2 = 0.398,0.179 ± 0.00908 kcal/mol
same,excess molar enthalpy,[2]; x2 = 0.495,0.163 ± 0.00837 kcal/mol
same,excess molar enthalpy,[2]; x2 = 0.593,0.143 ± 0.00717 kcal/mol
same,excess molar enthalpy,[2]; x2 = 0.693,0.117 ± 0.00598 kcal/mol
same,excess molar enthalpy,[2]; x2 = 0.799,0.0814 ± 0.00406 kcal/mol
same,excess molar enthalpy,[2]; x2 = 0.899,0.0435 ± 0.00222 kcal/mol
CCCCCCCCO [octan-1-ol],mass density,[1],822.47 ± 0.83 kg/m3
CCCO [propan-1-ol],mass density,[1],799.65 ± 0.72 kg/m3
